Experiment [1] relates to Staphylococcus aureus. As to the kind of experiment: (§1) Compound was tested for its binding affinity against PBP2' receptor in Staphylococcus aureus. In kind it is functional, organism-based.
The nature of experiment [2]: In vitro binding affinity towards PBP2'' of Staphylococcus aureus using [14C]benzylpenicillin as radioligand.
In experiment [3] the test system is Staphylococcus aureus. As to the kind of experiment: Antibacterial activity against methicillin-sensitive Staphylococcus aureus 601055.(grown in the presence of blood). It is filed as functional.
The test system of experiment [4] is Staphylococcus aureus. The experiment in a line: Antibacterial activity against methicillin-resistant Staphylococcus aureus 607004. In kind it is functional.
For experiment [5], the system named is Staphylococcus aureus. As to the kind of experiment: Antibacterial activity against methicillin-sensitive Staphylococcus aureus 601055. It is filed as functional.
Experiment [6] deals with Staphylococcus aureus. The experiment in a line: Compound was tested for its binding affinity against PBP2'' receptor in Staphylococcus aureus. Values taken from literature. In kind it is functional.
Another experiment deals with Streptococcus pneumoniae. The experiment in a line: Antibacterial activity against penicillin-resistant Streptococcus pneumoniae 671319. It is filed as functional.
For experiment [7], the system named is Staphylococcus aureus. As to the kind of experiment: Compound was tested for its antibacterial activity against methicillin-resistant Staphylococcus aureus. In kind it is functional.
For another experiment, the system named is Enterococcus faecalis. The experiment in a line: Antibacterial activity against vancomycin-sensitive Enterococcus faecalis 683026. In kind it is functional.
For experiment [8], the system named is Staphylococcus haemolyticus. As to the kind of experiment: Antibacterial activity against methicillin-resistant Staphylococcus haemolyticus 601117. It is filed as functional.
Experiment [9] has as its system Staphylococcus aureus. The experiment in a line: Antibacterial activity against methicillin-resistant Staphylococcus aureus 601053. It is filed as functional.
In the next experiment the test system is Enterococcus faecium. The experiment in a line: Antibacterial activity against vancomycin-resistant Enterococcus faecium 628016. In kind it is functional.
Experiment [10] is described as follows: as §1.

In brackets after ≈: the same amount, converted by molar mass.

As usually defined, the IC50 is the concentration that inhibits the measured activity by half. A higher IC50 goes with weaker potency. By MIC is commonly meant the lowest concentration found to suppress growth.

Consider `C[C@@H](O)[C@H]1C(=O)N2C(C(=O)O)=C(SCCNC=N)C[C@H]12` [IMIPENEM ANHYDROUS], for which the IC50 in the experiment on Staphylococcus aureus [1] stood at 430 µg/mL (≈ 1440 µM); in experiment [2] it was 430 µg/mL (≈ 1440 µM); in the experiment on Staphylococcus aureus [6], 220 µg/mL (≈ 735 µM). Moreover, the MIC in the experiment on Staphylococcus aureus [3] was 0.015 µg/mL; against Staphylococcus aureus [4] it was 64 µg/mL (≈ 214 µM); in the experiment on Staphylococcus aureus [5], 0.03 µg/mL (≈ 0.1 µM); in the experiment on Streptococcus pneumoniae, 0.12 µg/mL (≈ 0.401 µM); against Staphylococcus aureus [7], 128 µg/mL (≈ 428 µM); in the experiment with Enterococcus faecalis, 2 µg/mL (≈ 6.68 µM). The minimum inhibitory concentration (MIC) amounted to 64 µg/mL (≈ 214 µM) in [8], 8 µg/mL (≈ 26.7 µM) in the experiment with Staphylococcus aureus [9] and 4 µg/mL (≈ 13.4 µM) against Enterococcus faecium.

In the case of `C[C@@H](O)[C@H]1C(=O)N2C(C(=O)O)=C(COc3ccc4cc(C(N)=O)ccc4c3)[C@H](C)[C@H]12`, the IC50 in [2] is more than 16 µg/mL; in the experiment on Staphylococcus aureus [6], 8 µg/mL (≈ 19.5 µM); in experiment [10], more than 16 µg/mL. The MIC in the experiment on Staphylococcus aureus [3] worked out at 0.016 µg/mL; in the experiment with Staphylococcus aureus [4], 0.5 µg/mL (≈ 1.22 µM); with Staphylococcus aureus [5], 0.008 µg/mL (≈ 0.0195 µM); in the experiment with Streptococcus pneumoniae, 0.03 µg/mL (≈ 0.0731 µM); in the experiment on Enterococcus faecalis, 2 µg/mL (≈ 4.87 µM); in experiment [8], 2 µg/mL (≈ 4.87 µM). Moreover, the MIC against Staphylococcus aureus [9] was found to be 0.25 µg/mL (≈ 0.609 µM); against Enterococcus faecium it was 1 µg/mL (≈ 2.44 µM).

For the origin of these results see ChEMBL document CHEMBL1129198, “Synthesis and antibacterial activity of lipophilic carbapenems with anti-MRSA activity” (Bioorg Med Chem Lett, 1996).
